Experimental data: patent publication US6166067A, “Inhibitors of cholesterol-biosynthesis for reducing the cholesterol content of poultry eggs” (priority 1998, dated 2000)

How the values were obtained:
cholesterol = conditions: high doses; cited from earlier work
[1] = test system: triglycerides in the yolk; test: Triglycerides in egg yolk, laying-hen feeding trial (Example 1); type: in vivo, laying hens (Lohmann Selected Leghorn); conditions: both dosages (1500 and 15000 mg/kg feed); 4 weeks
Description: At the start of the trial, the laying hens (Lohmann Selected Leghorn) had been laying for 28 weeks. One treatment group consisted of 10 hens. The birds were initially fed with the various active ingredients for 4 weeks. The eggs were then collected for the analyses. 3 independent yolk pools were formed from 6 eggs in each case and were deep-frozen until analyzed. Total cholesterol and triglycerides in the yolk were analyzed by enzymatic methods. The analyses were carried out as stated in the handbook "Veterinarmedizinische Laboruntersuchungen fur die Diagnose und Verlaufskontrolle" (1985), 3rd edition, published by Boehringer Mannheim GmbH, Mannheim.
(§1) The triglycerides are determined enzymatically via their glycerol content. The triglycerides are cleaved enzymatically by the enzymes lipase and esterase. The resulting glycerol is phosphorylated by ATP to glycerol 3-phosphate in the reaction catalyzed by glycerol kinase GK.
glycerol+ATP.revreaction.glycerol 3-phosphate+ADP
The resulting ADP is converted by pyruvate kinase (PK) with phosphoenolpyruvate (PEP) back into ATP, with formation of pyruvate. [drawing 6] Pyruvate is hydrogenated to lactate by lactate dehydrogenase (LDH) with NADH, the NADH being oxidized to NAD. [drawing 7]
The amount of NADH consumed during the reaction is equivalent to the amount of glycerol. NADH is the measured variable and can easily be determined from its absorption at Hg 366 nm, Hg 334 nm or 340 nm.
The data were subjected to analysis of variance, and differences between means were ranged by the Duncan test.

[2] = design: species or system laying hens; conditions: in vivo
Description: (§2) Tocopherols and tocotrienols in the yolk pools were determined by HPLC. To do this, the sample is hydrolyzed in aqueous alcoholic medium and extracted several times with diethyl ether. Quantification takes place by comparison with external standards.
(§3) Another feeding experiment was carried out in analogy to Example 1. In this case the intention was to test not only α- and δ-tocotrienol but also a tocotrienol precursor (4-oxo-γ-tocotrienol) and other terpenoids such as farnesyl acetate, perillyl alcohol, linalool and β-ionone, in laying hens.
(§4) The trial protocol corresponds to that in Example 1 but with the following amendments:
(§5) 4 birds in each case from the control and the high dosages were sacrificed at the end of the trial. After taking blood to obtain plasma, the birds were completely exsanguinated. The liver was then removed and deep frozen until analyzed.
(§6) In addition, α-, δ- and 4-oxo-γ-tocotrienol in yolk and liver (treatments 1 to 7) were determined.

[3] = design: species or system laying hens; conditions: in vivo; remark: listed apart in the source
Description: as §2, §3, §4
(§7) The number of birds comprised 8 hens per treatment.
as §6

cholesterol in yolk = test: Cholesterol in egg yolk, laying-hen feeding trial (Example 2); type: in vivo, laying hens; conditions: for Cholesterol, yolk: control 10.23
From the text: (§8) For the cholesterol determination, the cholesterol esters were cleaved to cholesterol and fatty acid by the action of cholesterol esterase. Free cholesterol is converted by atmospheric oxygen with the involvement of cholesterol oxidase into Δ^4 -cholestenone and hydrogen peroxide. The resulting hydrogen peroxide forms with 4-aminophenazone and phenol through the catalytic action of peroxidase a red dye whose intensity of color is directly proportional to the cholesterol concentration and can be measured at 500 to 550 nm.
as §3, §4, §7
(§9) Triglyceride and cholesterol were determined in 4 independent yolk pools(each from 6 eggs) and plasma.

triglycerides in yolk = test: Triglycerides in egg yolk, laying-hen feeding trial (Example 2); type: in vivo, laying hens; conditions: control 170.4
Description: as §1, §3, §4, §7, §9

plasma cholesterol = test: Cholesterol in plasma, laying-hen feeding trial (Example 2); type: in vivo, laying hens; conditions: 500 mg/kg feed; control 125.3
From the text: as §8, §3, §4, §7, §5, §9

[4] = test system: cholesterol content of poultry eggs; conditions: literature (Huggett et al.; Beyer and Jensen); cited from earlier work
plasma triglyceride = test: Triglycerides in plasma, laying-hen feeding trial (Example 2); type: in vivo, laying hens; conditions: 500 mg/kg feed; control 2496
Description: as §1, §3, §4, §7, §5, §9

Row | detectability in the birds' livers [2] | increase for tocotrienols in yolk [3] | Structure (SMILES) | cholesterol-lowering effect (cholesterol) | triglyceride content in the yolk [1] | effect on β-tocopherol [3] | Cholesterol, yolk (cholesterol in yolk; 50 mg/kg feed) [mg/g] | Cholesterol, yolk (cholesterol in yolk; 500 mg/kg feed) [mg/g] | trend in yolk cholesterol content (cholesterol in yolk; Example 2) | Triglycerides, yolk (triglycerides in yolk; 50 mg/kg feed) [mg/g] | Triglycerides, yolk (triglycerides in yolk; 500 mg/kg feed) [mg/g] | Cholesterol, plasma (plasma cholesterol) [mg/dL] | effect on the cholesterol content in eggs [4] | Triglycerides, plasma (plasma triglyceride) [mg/dL]
1 | – | – | O=C(O)c1cccnc1 [nicotinic acid, reference compound] | cholesterol-lowering effect | significantly increased | – | – | – | – | – | – | – | – | –
2 | detectable in the birds' livers | most pronounced increase | CC(C)=CCC/C(C)=C/CC/C(C)=C/CC[C@]1(C)CCc2c(C)c(O)c(C)c(C)c2O1 [α-Tocotrienol, α-tocotrienol] | – | – | effect on β-tocopherol only by the α-tocotrienol treatments | 9.85 | 9.45 | trend toward reduced cholesterol contents in yolk | 189.9 | 195.1 | 130.3 | no effect | 4195
